Blank lines part the entries; values can stand above or below the molecule they belong to.
Assays:
FGFR1 = target: T1, FGFR1 (Homo sapiens, UniProt P11362); test: Z'-LYTE Detection Kinase Assay, in vitro enzyme activity test; assay type: biochemical; details: 0.6 nM FGFR1, 10 μm ATP, 23° C., 60 minutes
T1 construct: purchased Invitrogen PV4105
Procedure: The enzyme activity was detected by Z′-LYTE™ Detection Kinase Assay, and the IC50 value of the compound was used as an indicator to evaluate the inhibitory effect of the compound against FGFR1.
FGFR1 (Invitrogen #PV4105)
Reaction buffer solution: 50 mM Hepes (pH 7.5), 10 mM MgCl2, 1 mM EGTA, 0.01% Brij-35, 1 mM DTT, 2 mM MnCl2;
0.6 nM FGFR1, 2 μm Tyr^4 peptide and 10 μm ATP in reaction buffer solution (50 mM Hepes, pH 7.5, 10 mM MgCl2, 0.01% BRU-35, 1 mM EGTA, 4 mM MnCl2, 2 mM DTT).
a. Diluting the compound with DMSO to 10 mM, 3-fold dilution, 11 gradients, two duplicate wells;
b. Transferring compound diluted with a ratio of 1:25 to the middle plate at Bravo Automatic Liquid Station. Then transferring 2.5 uL to the reaction plate to ensure the final DMSO concentration to be 1%;
c. Transferring 5 μL enzyme/substrate buffer to each well;
d. Adding ATP solution to each well sequentially with Multidrop liquid workstation;
e. Centrifuging at 1000 rpm for 1 minute;
f. Placing the reaction plate in a 23° C. incubator, and allowing to react for 60 minutes.
a. Preparing a mixture of Development regent B and Development Buffer with a ratio of 1:128;
b. Adding 5 uL to each well and centrifuging at 1000 rpm for 1 minute;
c. Placing the reaction plate into an incubator (23° C.) for 90 minutes after centrifugation, taking it out, and reading it in the Envision (Perkin Elmer) plate reader […]

[1] = test system: FGFR1/2 Highly Expressed Patient-derived Liver Tumor Transplantation Model; test: Tumor growth inhibition (TGI) analysis; assay type: in vivo, mice; details: 5 mg/kg, BID
Procedure: The evolutionary growth potential of tumors was evaluated by the relationship between tumor volume and time. The long axis (L) and short axis (W) of the subcutaneous tumor were measured twice a week by the caliper and the tumor volume (TV) was calculated by the formula ((L×W^2)/2). TGI was calculated from the difference between the median tumor volume in the solvent group mice and the median tumor volume in the drug group mice, expressed as a percentage counting for the median tumor volume in the solvent control group, calculated by the following formula: % TGI=((median tumor volume (control)−median tumor volume (dosing group))/median tumor volume (control group))×100
The original statistical analysis was done by repeating the analysis of variance, followed by post-hoc Scheffe's test method for multiple comparisons, with solvent alone (0.5% methylcellulose+0.2% Tween in water) as negative control.

[2] = Solid stability test of crystal form G, crystal form I and crystal form J (HPLC content, total impurities, XRPD, appearance); assay type: physicochemical; details: for thermal stability and stability under accelerated conditions: conclusion of influencing factors and accelerated tests
Procedure: About 10 mg of crystal form G, crystal form I, or crystal form J were weighed accurately, and placed on the bottom of a 40 mL glass sample bottle and spread into a thin layer. For an open sample, the bottle mouth thereof was sealed with aluminum foil poked with pinholes to ensure that the sample can fully contact with the ambient air. For a sealed sample, the bottle mouth thereof was sealed with a bottle cap, and wrapped with a sealing film. Two duplicate samples were weighed at each time point of each condition in parallel, and an appropriate amount of sample (not weighed) was taken additionally for XRPD detection. The prepared samples were placed under each condition and were sampled and analyzed when the time point was arrived. On 0th day, 5 control samples were weighed in parallel and stored in a refrigerator at −20° C. until analysis. The samples subjected to light irradiation were prepared by the same method, and placed on the bottom of a 40 mL glass sample bottle. The glass bottle was left open and placed in the upright position in a light irradiation box. In addition, two samples in an appropriate amount were taken as samples in dark, and the glass bottles containing the same were left open, put in the upright position, and wrapped with tin foil, and irradiated with a total luminance of 1.2×10^6Lux.hr and a near ultraviolet power of 200 w.hr/m^2. After irradiation, the samples was stored in the refrigerator at −20° C. for analysis.
The compounds were placed under the following conditions and sampled at different time points to detect the physical properties, and the content and total impurities were analyzed by HPLC.

[3] = Hygroscopicity test by dynamic vapor sorption (DVS); assay type: physicochemical; details: 25±1° C. and 80±2% RH; for hygroscopicity evaluation: scales in the 11th table
Procedure: Instrument model: SMS DVS Advantage dynamic vapor sorption analyzer Detection conditions: samples (10 mg to 15 mg) were placed in a DVS sample tray for detection. The detailed DVS parameters are as follows: Temperature: 25° C. Balance: dm/dt=0.01%/min (shortest: 10 min, longest: 180 min) Drying: 120 minutes at 0% RH RH (%) gradient for testing: 10% RH (%) range for gradient testing: 0%-90%-0% The hygroscopicity was evaluated using the following scales: [table] 10 to 15 mg of the crystal form I of the compound of formula (III) was taken and placed in a DVS sample tray for testing. 10 to 15 mg of the crystal form J of the compound of formula (IV) was taken and placed in a DVS sample tray for testing.

[4] = Accelerated test (40 C./relative humidity 75%, open), 1st month
[5] = Accelerated test (40 C./relative humidity 75%, open), 2nd month
[6] = Accelerated test (40 C./relative humidity 75%, open), 3rd month
[7] = Accelerated test (40 C./relative humidity 75%, open), 10th day
[8] = Accelerated test (60 C./relative humidity 75%, open), 1st month
[9] = Accelerated test (60 C./relative humidity 75%, open), 2nd month
[10] = Accelerated test (60 C./relative humidity 75%, open), 3rd month
[11] = Accelerated test (60 C./relative humidity 75%, open), 10th day
[12] = High humidity (Room temperature/relative humidity 92.5%, open), 5th day
[13] = High humidity (Room temperature/relative humidity 92.5%, open), 10th day
[14] = High temperature (60° C., open), 5th day
[15] = High temperature (60° C., open), 10th day
[16] = Light irradiation (total illuminance 1.2 × 10^6 Lux·hr/near ultraviolet 200 w·hr/m^2, open), light irradiation sample
[17] = Light irradiation test, Dark sample
[18] = Accelerated test (40° C./relative humidity 75%, open), 1st month
[19] = Accelerated test (40° C./relative humidity 75%, open), 2nd month
[20] = Accelerated test (40° C./relative humidity 75%, open), 3rd month
[21] = Accelerated test (40° C./relative humidity 75%, open), 10th day
[22] = Accelerated test (60° C./relative humidity 75%, open), 1st month
[23] = Accelerated test (60° C./relative humidity 75%, open), 2nd month
[24] = Accelerated test (60° C./relative humidity 75%, open), 3rd month
[25] = Accelerated test (60° C./relative humidity 75%, open), 10th day
[26] = Light irradiation (1.2 × 10^6 Lux·hr, near ultraviolet 200 w·hr/m^2, open), irradiated sample

T1 sequence (P11362 22-822): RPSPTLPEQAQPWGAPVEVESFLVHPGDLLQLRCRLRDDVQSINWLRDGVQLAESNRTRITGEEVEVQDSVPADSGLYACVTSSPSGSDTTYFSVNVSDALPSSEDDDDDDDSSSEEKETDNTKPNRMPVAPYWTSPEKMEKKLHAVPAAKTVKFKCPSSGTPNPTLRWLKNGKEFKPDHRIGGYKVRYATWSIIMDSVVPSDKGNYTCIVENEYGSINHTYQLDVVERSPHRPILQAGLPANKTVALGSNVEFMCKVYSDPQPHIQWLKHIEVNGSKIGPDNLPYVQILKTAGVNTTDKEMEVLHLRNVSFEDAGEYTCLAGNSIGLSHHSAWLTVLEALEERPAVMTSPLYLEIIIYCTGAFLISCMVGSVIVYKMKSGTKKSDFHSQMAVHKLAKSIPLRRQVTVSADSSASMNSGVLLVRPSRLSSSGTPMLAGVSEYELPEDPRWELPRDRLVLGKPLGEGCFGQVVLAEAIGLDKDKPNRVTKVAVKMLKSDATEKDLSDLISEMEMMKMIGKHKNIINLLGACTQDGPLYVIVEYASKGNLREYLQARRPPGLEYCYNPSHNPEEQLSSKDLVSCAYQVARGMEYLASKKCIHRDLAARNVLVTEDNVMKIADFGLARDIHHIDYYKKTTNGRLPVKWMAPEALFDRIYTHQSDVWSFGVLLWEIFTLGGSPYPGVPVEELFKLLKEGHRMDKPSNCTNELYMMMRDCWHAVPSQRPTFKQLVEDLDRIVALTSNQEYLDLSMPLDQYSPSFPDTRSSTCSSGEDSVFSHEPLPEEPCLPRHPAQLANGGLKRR

IC50 (FGFR1): ≤ 10 nM
SMILES: C[C@@H](Oc1ccc2[nH]nc(/C=C(\F)c3ccc(CNC4CCOCC4)nc3)c2c1)c1c(Cl)cncc1Cl [Embodiment 1]
TGI % (last administration) [1]: 85%

Appearance ([2]; 0th day, control): Earth yellow | Crystal form (XRPD) ([2]; 0th day, control): form J | Content (%) ([2]; 0th day, control, HPLC): 100.00% | Total impurities (%) ([2]; 0th day, control, HPLC): 1.42% | Appearance [2, 4]: Earth yellow | Content (%) [2, 4]: 99.31% | Crystal form (XRPD) [2, 4]: form J | Total impurities (%) [2, 4]: 1.36% | Appearance [2, 5]: Earth yellow | Content (%) [2, 5]: 99.40% | Crystal form (XRPD) [2, 5]: form J | Total impurities (%) [2, 5]: 1.20% | Appearance [2, 6]: Earth yellow | Content (%) [2, 6]: 98.62% | Crystal form (XRPD) [2, 6]: form J | Total impurities (%) [2, 6]: 1.20% | Appearance [2, 7]: Earth yellow | Content (%) [2, 7]: 99.44% | Crystal form (XRPD) [2, 7]: form J | Total impurities (%) [2, 7]: 1.33% | Appearance [2, 8]: Earth yellow | Content (%) [2, 8]: 97.07% | Crystal form (XRPD) [2, 8]: form J | Total impurities (%) [2, 8]: 1.43% | Appearance [2, 9]: Earth yellow | Content (%) [2, 9]: 97.22% | Crystal form (XRPD) [2, 9]: form J | Total impurities (%) [2, 9]: 1.48% | Appearance [2, 10]: Earth yellow | Content (%) [2, 10]: 97.18% | Crystal form (XRPD) [2, 10]: form J | Total impurities (%) [2, 10]: 1.53% | Appearance [2, 11]: Earth yellow | Content (%) [2, 11]: 99.05% | Crystal form (XRPD) [2, 11]: form J | Total impurities (%) [2, 11]: 1.36% | Appearance [2, 12]: Earth yellow | Content (%) [2, 12]: 99.06% | Crystal form (XRPD) [2, 12]: form J | Total impurities (%) [2, 12]: 1.31% | Appearance [2, 13]: Earth yellow | Content (%) [2, 13]: 100.58% | Crystal form (XRPD) [2, 13]: form J | Total impurities (%) [2, 13]: 1.32% | Appearance [2, 14]: Earth yellow | Content (%) [2, 14]: 98.83% | Crystal form (XRPD) [2, 14]: form J | Total impurities (%) [2, 14]: 1.39% | Appearance [2, 15]: Earth yellow | Content (%) [2, 15]: 99.11% | Crystal form (XRPD) [2, 15]: form J | Total impurities (%) [2, 15]: 1.46% | Appearance [2, 16]: Earth yellow | Content (%) [2, 16]: 96.41% | Crystal form (XRPD) [2, 16]: form J | Total impurities (%) [2, 16]: 1.90% | Appearance [2, 17]: Earth yellow | Content (%) [2, 17]: 98.04% | Crystal form (XRPD) [2, 17]: form J | Total impurities (%) [2, 17]: 1.30% | thermal stability and stability under accelerated conditions [2]: excellent | stability under dark conditions [2]: good stability | impurities generated under light irradiation conditions [2]: slight impurities | hygroscopic weight gain ΔW [3]: 5.227% | hygroscopicity evaluation [3]: hygroscopic
SMILES: C[C@@H](Oc1ccc2[nH]nc(/C=C(\F)c3ccc(CNC4CCOCC4)nc3)c2c1)c1c(Cl)cncc1Cl.O=C(O)C[C@H](O)C(=O)O [crystal form J]

Appearance ([2]; 0th day): Earth yellow | Content (%) ([2]; 0th day): 100.00% | Crystal form (XRPD) ([2]; 0th day): form I | Total impurities (%) ([2]; 0th day): 1.91% | Appearance [2, 18]: Earth yellow | Content (%) [2, 18]: 99.83% | Crystal form (XRPD) [2, 18]: form I | Total impurities (%) [2, 18]: 1.88% | Appearance [2, 19]: Earth yellow | Content (%) [2, 19]: 100.06% | Crystal form (XRPD) [2, 19]: form I | Total impurities (%) [2, 19]: 1.82% | Appearance [2, 20]: Earth yellow | Content (%) [2, 20]: 99.32% | Crystal form (XRPD) [2, 20]: form I | Total impurities (%) [2, 20]: 1.86% | Appearance [2, 21]: Earth yellow | Content (%) [2, 21]: 99.93% | Crystal form (XRPD) [2, 21]: form I | Total impurities (%) [2, 21]: 1.85% | Appearance [2, 22]: Earth yellow | Content (%) [2, 22]: 99.95% | Crystal form (XRPD) [2, 22]: form I | Total impurities (%) [2, 22]: 1.74% | Appearance [2, 23]: Earth yellow | Content (%) [2, 23]: 98.46% | Crystal form (XRPD) [2, 23]: form I | Total impurities (%) [2, 23]: 1.79% | Appearance [2, 24]: Earth yellow | Content (%) [2, 24]: 97.31% | Crystal form (XRPD) [2, 24]: form I | Total impurities (%) [2, 24]: 1.83% | Appearance [2, 25]: Earth yellow | Content (%) [2, 25]: 100.19% | Crystal form (XRPD) [2, 25]: form I | Total impurities (%) [2, 25]: 1.85% | Appearance [2, 12]: Earth yellow | Content (%) [2, 12]: 99.10% | Crystal form (XRPD) [2, 12]: form I | Total impurities (%) [2, 12]: 1.88% | Appearance [2, 13]: Earth yellow | Content (%) [2, 13]: 99.92% | Crystal form (XRPD) [2, 13]: form I | Total impurities (%) [2, 13]: 1.73% | Appearance [2, 14]: Earth yellow | Content (%) [2, 14]: 100.40% | Crystal form (XRPD) [2, 14]: form I | Total impurities (%) [2, 14]: 1.93% | Appearance [2, 15]: Earth yellow | Content (%) [2, 15]: 100.26% | Crystal form (XRPD) [2, 15]: form I | Total impurities (%) [2, 15]: 1.83% | Appearance [2, 26]: Earth yellow | Content (%) [2, 26]: 97.37% | Crystal form (XRPD) [2, 26]: form I | Total impurities (%) [2, 26]: 2.35% | Appearance [2, 17]: Earth yellow | Content (%) [2, 17]: 99.42% | Crystal form (XRPD) [2, 17]: form I | Total impurities (%) [2, 17]: 1.85% | thermal stability and stability under accelerated conditions [2]: excellent | stability under dark conditions [2]: good stability | impurities generated under light irradiation conditions [2]: slight impurities | hygroscopic weight gain ΔW [3]: 2.134% | hygroscopicity evaluation [3]: hygroscopic
SMILES: C[C@@H](Oc1ccc2[nH]nc(/C=C(\F)c3ccc(CNC4CCOCC4)nc3)c2c1)c1c(Cl)cncc1Cl.O=C(O)CC(O)(CC(=O)O)C(=O)O [crystal form I]

Reference: patent US11078194B2, “Salt form and crystal form serving as FGFR and VEGFR inhibitor compounds, and preparation method therefor” (HARBIN ZHENBAO PHARMACEUTICAL CO., LTD., priority 2017, dated 2021)
